In PubChem BioAssay (NCI):
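Five concentrations, 48 hours, 96-well plates. The concentration for full growth arrest is given as TGI.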

How the values were obtained:
Test in all cases: NCI anticancer screen, dose series, 48 h
HCC-2998 colon = test system: HCC-2998 colon
OVCAR-5 ovarian = test system: OVCAR-5 ovarian
RXF 393 renal = test system: RXF 393 renal
HL-60(TB) leukemia = test system: HL-60(TB) leukemia
K-562 leukemia = test system: K-562 leukemia
OVCAR-8 ovarian = test system: OVCAR-8 ovarian
EKVX NSCLC = test system: EKVX NSCLC
M14 melanoma = test system: M14 melanoma
OVCAR-4 ovarian = test system: OVCAR-4 ovarian
DMS 114 small cell lung = test system: DMS 114 small cell lung
HCT-116 colon = test system: HCT-116 colon
A549 NSCLC = test system: A549 NSCLC
M19-MEL melanoma = test system: M19-MEL melanoma
IGROV1 ovarian = test system: IGROV1 ovarian
SNB-75 CNS = test system: SNB-75 CNS
SW-620 colon = test system: SW-620 colon
ACHN renal = test system: ACHN renal
XF 498 CNS = test system: XF 498 CNS
NCI-H226 lung = test system: NCI-H226 lung
HOP-92 NSCLC = test system: HOP-92 NSCLC
TK-10 renal = test system: TK-10 renal
786-0 renal = test system: 786-0 renal
U251 CNS = test system: U251 CNS
UO-31 renal = test system: UO-31 renal
DMS 273 small cell lung = test system: DMS 273 small cell lung
SN12C renal = test system: SN12C renal
RPMI-8226 leukemia = test system: RPMI-8226 leukemia
SK-MEL-28 melanoma = test system: SK-MEL-28 melanoma
DLD-1 colon = test system: DLD-1 colon
SK-MEL-2 melanoma = test system: SK-MEL-2 melanoma
HT29 colon = test system: HT29 colon
A498 renal = test system: A498 renal
NCI-H460 lung = test system: NCI-H460 lung
NCI-H23 lung = test system: NCI-H23 lung
SF-539 CNS = test system: SF-539 CNS
COLO 205 colon = test system: COLO 205 colon
RXF-631 renal = test system: RXF-631 renal
SF-295 CNS = test system: SF-295 CNS
SK-OV-3 ovarian = test system: SK-OV-3 ovarian
UACC-62 melanoma = test system: UACC-62 melanoma
SNB-78 CNS = test system: SNB-78 CNS
CCRF-CEM leukemia = test system: CCRF-CEM leukemia
NCI-H522 lung = test system: NCI-H522 lung
KM12 colon = test system: KM12 colon
HCT-15 colon = test system: HCT-15 colon
KM20L2 colon = test system: KM20L2 colon
SF-268 CNS = test system: SF-268 CNS
LXFL 529 NSCLC = test system: LXFL 529 NSCLC
OVCAR-3 ovarian = test system: OVCAR-3 ovarian
MOLT-4 leukemia = test system: MOLT-4 leukemia
LOX IMVI melanoma = test system: LOX IMVI melanoma
HOP-62 NSCLC = test system: HOP-62 NSCLC
SNB-19 CNS = test system: SNB-19 CNS
SK-MEL-5 melanoma = test system: SK-MEL-5 melanoma
CAKI-1 renal = test system: CAKI-1 renal
SR leukemia = test system: SR leukemia
HOP-18 NSCLC = test system: HOP-18 NSCLC
UACC-257 melanoma = test system: UACC-257 melanoma
MALME-3M melanoma = test system: MALME-3M melanoma

CC(C)[C@H](COC(C)(C)C)N=CN1CSc2ccccc21
TGI (HCC-2998 colon): > 100 µM | TGI (OVCAR-5 ovarian): > 100 µM | TGI (RXF 393 renal): 95.2 µM | TGI (HL-60(TB) leukemia): 57.1 µM | TGI (K-562 leukemia): > 100 µM | TGI (OVCAR-8 ovarian): > 100 µM | TGI (EKVX NSCLC): > 100 µM | TGI (M14 melanoma): > 100 µM | TGI (OVCAR-4 ovarian): > 100 µM | TGI (DMS 114 small cell lung): 62.1 µM | TGI (HCT-116 colon): 79.2 µM | TGI (A549 NSCLC): > 100 µM | TGI (M19-MEL melanoma): > 100 µM | TGI (IGROV1 ovarian): > 100 µM | TGI (SNB-75 CNS): 77.1 µM | TGI (SW-620 colon): > 100 µM | TGI (ACHN renal): 71.4 µM | TGI (XF 498 CNS): 47.8 µM | TGI (NCI-H226 lung): > 100 µM | TGI (HOP-92 NSCLC): 41.9 µM | TGI (TK-10 renal): > 100 µM | TGI (786-0 renal): > 100 µM | TGI (U251 CNS): > 100 µM | TGI (UO-31 renal): > 100 µM | TGI (DMS 273 small cell lung): 37.8 µM | TGI (SN12C renal): 84.1 µM | TGI (RPMI-8226 leukemia): 54 µM | TGI (SK-MEL-28 melanoma): > 100 µM | TGI (DLD-1 colon): > 100 µM | TGI (SK-MEL-2 melanoma): > 100 µM | TGI (HT29 colon): > 100 µM | TGI (A498 renal): > 100 µM | TGI (NCI-H460 lung): > 100 µM | TGI (NCI-H23 lung): > 100 µM | TGI (SF-539 CNS): 65.6 µM | TGI (COLO 205 colon): 39.4 µM | TGI (RXF-631 renal): > 100 µM | TGI (SF-295 CNS): 67.4 µM | TGI (SK-OV-3 ovarian): 78.3 µM | TGI (UACC-62 melanoma): > 100 µM | TGI (SNB-78 CNS): 81.5 µM | TGI (CCRF-CEM leukemia): > 100 µM | TGI (NCI-H522 lung): > 100 µM | TGI (KM12 colon): > 100 µM | TGI (HCT-15 colon): > 100 µM | TGI (KM20L2 colon): > 100 µM | TGI (SF-268 CNS): > 100 µM | TGI (LXFL 529 NSCLC): > 100 µM | TGI (OVCAR-3 ovarian): 58.2 µM | TGI (MOLT-4 leukemia): > 100 µM | TGI (LOX IMVI melanoma): 93.2 µM | TGI (HOP-62 NSCLC): > 100 µM | TGI (SNB-19 CNS): > 100 µM | TGI (SK-MEL-5 melanoma): 63 µM

O=C(O/N=C1/CCC/C1=C\c1ccccc1)c1ccc(Cl)cc1
TGI (HCC-2998 colon): > 100 µM | TGI (OVCAR-5 ovarian): > 100 µM | TGI (RXF 393 renal): > 31.6 µM | TGI (CAKI-1 renal): > 82.4 µM | TGI (HL-60(TB) leukemia): > 100 µM | TGI (K-562 leukemia): > 100 µM | TGI (OVCAR-8 ovarian): > 100 µM | TGI (EKVX NSCLC): > 100 µM | TGI (M14 melanoma): > 100 µM | TGI (OVCAR-4 ovarian): 58.7 µM | TGI (SR leukemia): > 100 µM | TGI (HCT-116 colon): > 100 µM | TGI (A549 NSCLC): > 100 µM | TGI (M19-MEL melanoma): > 100 µM | TGI (IGROV1 ovarian): > 65 µM | TGI (SNB-75 CNS): 78 µM | TGI (SW-620 colon): > 100 µM | TGI (ACHN renal): > 100 µM | TGI (XF 498 CNS): > 100 µM | TGI (NCI-H226 lung): > 100 µM | TGI (HOP-92 NSCLC): > 100 µM | TGI (TK-10 renal): > 100 µM | TGI (786-0 renal): > 100 µM | TGI (U251 CNS): > 89.8 µM | TGI (UO-31 renal): > 100 µM | TGI (DMS 273 small cell lung): > 100 µM | TGI (SN12C renal): > 100 µM | TGI (RPMI-8226 leukemia): > 100 µM | TGI (SK-MEL-28 melanoma): > 100 µM | TGI (DLD-1 colon): > 31.6 µM | TGI (SK-MEL-2 melanoma): > 100 µM | TGI (HT29 colon): > 100 µM | TGI (HOP-18 NSCLC): > 100 µM | TGI (A498 renal): > 100 µM | TGI (NCI-H460 lung): > 31.6 µM | TGI (NCI-H23 lung): > 95.3 µM | TGI (SF-539 CNS): > 62.2 µM | TGI (COLO 205 colon): > 100 µM | TGI (SF-295 CNS): > 100 µM | TGI (SK-OV-3 ovarian): > 100 µM | TGI (UACC-62 melanoma): > 100 µM | TGI (SNB-78 CNS): > 100 µM | TGI (CCRF-CEM leukemia): > 100 µM | TGI (NCI-H522 lung): > 100 µM | TGI (UACC-257 melanoma): > 100 µM | TGI (KM12 colon): > 100 µM | TGI (HCT-15 colon): > 100 µM | TGI (KM20L2 colon): > 100 µM | TGI (MALME-3M melanoma): > 100 µM | TGI (SF-268 CNS): > 100 µM | TGI (LXFL 529 NSCLC): > 100 µM | TGI (OVCAR-3 ovarian): > 71.9 µM | TGI (MOLT-4 leukemia): > 100 µM | TGI (LOX IMVI melanoma): > 100 µM | TGI (HOP-62 NSCLC): > 89.6 µM | TGI (SNB-19 CNS): > 100 µM | TGI (SK-MEL-5 melanoma): > 100 µM
